Source: patent US20240132457A1, “3-(2-(BENZO[D]THIAZOL-2-YL)-2-(PHENYLSUFONAMIDO)ETHYL)BENZIMIDAMIDE DERIVATIVES AND RELATED COMPOUNDS AS TMPRSS2 INHIBITORS FOR THE TREATMENT OF VIRAL INFECTIONS” (INTEGERBIO, INC., priority 2020, published 2024)

Assays:
Assay type in all cases: biochemical
FXIa = target: T1, FXIa (Homo sapiens, UniProt P03951); assay: Non-TMPRSS2 protease panel: FXIa; settings: 10-dose, 3-fold from 10 μM
T1 construct: FVIIa, Fxa, FXIa, Furin
Protocol: (§1) Biochemical activity of compound 1 (racemic mixture, batch 1), compound 3 (racemic), compound 11, and compound 2 (enantiomer 1, batch 1) in proteases indicated in Table 21, Table 22, Table 23, and Table 24, respectively, were measured by testing the compounds in a 10-dose IC50 with a 3-fold series dilution starting at 10 μM against the proteases. The protease activities were monitored as a time-course measurement of the increase in fluorescence signal from fluorescently-labeled peptide substrate, and initial linear portion of slope (signal/min) was analyzed. The curve fits were performed when the activities at the highest concentration of compounds were less than 65%.

Trypsin = assay: Non-TMPRSS2 protease panel: Trypsin; settings: 10-dose, 3-fold from 10 μM
Protocol: as §1

[1] = target: T2, Human TMPRSS2-(AA 106-492) (Homo sapiens, UniProt O15393); assay: TMPRSS2 Assay 2 (Example 42), 384-well primary assay; settings: TMPRSS2 20 nM, substrate 40 μM, 150 min at room temperature
T2 construct: Human TMPRSS2-(AA 106-492)-; purchased CusaBio CSB-YP023924HU; host or cells: yeast
Protocol: The concentration-response testing of compounds was in primary, readout counter as 11-point compound dilution series in 384-well assay plate format in triplicates (n=3). The compound dilutions was prepared in an intermediate plate (spot volume=150 nL), and then the assay reagents were prepared. After preparing the intermediate plates containing the assay reagents for the transfer into the assay plate using the Selma 384/25 μl pipettor, the assay reagents were transferred into the assay plate.
The resulting plate was centrifuged at g=290 for 30 s, and then the plate was incubated at room temperature for 150 minutes. 10 μl 2.5× of stop reagent (50 mM acetic acid) (Selma) was added, and then the plate was read on Safire e.
The materials, reagents, and equipment used for the assay is described in Table 3, Table 4, Table 5, and Table 6.
For the primary assay, the assay buffer (50 mM Tris-HCL, 150 mM NaCl, 0.01% Tween®20, pH8.0) was prepared using the stocks as described in Table 7.
The enzyme dilution was prepared as described in Table 8.
The final assay concentration was referred to 15 μl assay volume. Using a “greiner-dilution” as intermediate plate, the according wells were filled ([…]). The volume was adjusted using another plate type. Substrate dilution was prepared as described in Table 9.
The final assay concentration was referred to 15 μl assay volume. The DMSO concentration of the substrate working dilution was 1.2%. Using a “greiner-dilution” as intermediate plate, the according wells were filled (23 μl). Using another plate type, the volume was adjusted.
The compounds were dissolved in DM50. 150 nl of the compound were transferred into the assay plate prior to addition of the assay components (final assay volume of 15 μl).
The final concentration of the tool compound (low control) in the assay (assay volume l) was 0.8 μM. For the High control 5 μl/well […] was filled in column 6. The readout settings are described in Table 14. The readout was performed utilizing Safire^2 Microplate Reader. […]

Plasma Kallikrein = Plasma Kallikrein (Homo sapiens, UniProt P03952); assay: Non-TMPRSS2 protease panel: Plasma Kallikrein; settings: 10-dose, 3-fold from 10 μM
Protocol: as §1

MMP 14 = MMP 14 (Homo sapiens, UniProt P50281); assay: Non-TMPRSS2 protease panel: MMP 14; settings: 10-dose, 3-fold from 10 μM
Protocol: as §1

Kallikrein 13 = target: T3, Kallikrein 13 (Homo sapiens, UniProt Q9UKR3); assay: Non-TMPRSS2 protease panel: Kallikrein 13; settings: 10-dose, 3-fold from 10 μM
T3 sequence (Q9UKR3 17-277): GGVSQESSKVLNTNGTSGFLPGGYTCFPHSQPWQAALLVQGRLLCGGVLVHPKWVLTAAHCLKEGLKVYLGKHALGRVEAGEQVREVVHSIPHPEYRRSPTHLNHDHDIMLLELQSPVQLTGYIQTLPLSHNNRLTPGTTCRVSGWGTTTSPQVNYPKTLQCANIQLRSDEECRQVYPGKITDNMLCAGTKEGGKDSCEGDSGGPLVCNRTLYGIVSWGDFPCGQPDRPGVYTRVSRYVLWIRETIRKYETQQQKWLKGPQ
Protocol: as §1

Urokinase = Urokinase (Homo sapiens, UniProt P00749); assay: Non-TMPRSS2 protease panel: Urokinase; settings: 10-dose, 3-fold from 10 μM
Protocol: as §1

Tryptase g1 = Tryptase g1 (Homo sapiens, UniProt Q9NRR2); assay: Non-TMPRSS2 protease panel: Tryptase g1; settings: 10-dose, 3-fold from 10 μM
Protocol: as §1

Cathepsin B = Cathepsin B (Homo sapiens, UniProt P07858); assay: Non-TMPRSS2 protease panel: Cathepsin B; settings: 10-dose, 3-fold from 10 μM
Protocol: as §1

Chain of Plasma Kallikrein (P03952 391-638 limits assumed): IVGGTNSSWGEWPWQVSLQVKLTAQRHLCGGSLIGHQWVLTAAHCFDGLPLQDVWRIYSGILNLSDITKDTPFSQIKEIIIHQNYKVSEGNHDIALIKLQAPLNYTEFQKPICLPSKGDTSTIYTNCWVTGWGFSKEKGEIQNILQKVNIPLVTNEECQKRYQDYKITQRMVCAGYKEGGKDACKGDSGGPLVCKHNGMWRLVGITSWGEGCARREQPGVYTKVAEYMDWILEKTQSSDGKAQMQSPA
Chain of Plasma Kallikrein (P03952 20-390 partner limits assumed): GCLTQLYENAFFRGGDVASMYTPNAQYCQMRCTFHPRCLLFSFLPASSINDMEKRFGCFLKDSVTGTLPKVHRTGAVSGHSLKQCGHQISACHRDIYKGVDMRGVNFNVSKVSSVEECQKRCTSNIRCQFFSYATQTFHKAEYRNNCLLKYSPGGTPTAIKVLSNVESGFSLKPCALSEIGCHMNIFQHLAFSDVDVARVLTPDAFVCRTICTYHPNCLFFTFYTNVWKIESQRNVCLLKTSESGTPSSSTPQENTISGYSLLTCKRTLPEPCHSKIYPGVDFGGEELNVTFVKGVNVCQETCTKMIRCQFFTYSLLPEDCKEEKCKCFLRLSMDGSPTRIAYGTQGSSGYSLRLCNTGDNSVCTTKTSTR
Chain of Tryptase g1 (Q9NRR2 20-321): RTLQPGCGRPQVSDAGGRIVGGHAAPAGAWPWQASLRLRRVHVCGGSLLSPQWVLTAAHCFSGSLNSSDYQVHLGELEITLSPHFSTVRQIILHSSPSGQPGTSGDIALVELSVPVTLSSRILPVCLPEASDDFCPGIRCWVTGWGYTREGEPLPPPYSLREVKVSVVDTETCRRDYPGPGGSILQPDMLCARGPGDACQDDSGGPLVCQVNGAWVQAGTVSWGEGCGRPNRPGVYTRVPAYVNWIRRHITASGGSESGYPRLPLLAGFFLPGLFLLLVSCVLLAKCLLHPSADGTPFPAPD
T1 sequence (P03951 388-625 limits assumed): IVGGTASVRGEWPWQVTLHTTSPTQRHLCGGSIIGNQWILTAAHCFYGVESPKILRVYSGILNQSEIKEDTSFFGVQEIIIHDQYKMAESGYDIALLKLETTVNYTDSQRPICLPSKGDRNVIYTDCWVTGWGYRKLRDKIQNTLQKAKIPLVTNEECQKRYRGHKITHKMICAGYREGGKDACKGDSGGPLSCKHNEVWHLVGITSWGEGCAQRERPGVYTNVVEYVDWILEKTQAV
T1 sequence (P03951 19-387 partner limits assumed): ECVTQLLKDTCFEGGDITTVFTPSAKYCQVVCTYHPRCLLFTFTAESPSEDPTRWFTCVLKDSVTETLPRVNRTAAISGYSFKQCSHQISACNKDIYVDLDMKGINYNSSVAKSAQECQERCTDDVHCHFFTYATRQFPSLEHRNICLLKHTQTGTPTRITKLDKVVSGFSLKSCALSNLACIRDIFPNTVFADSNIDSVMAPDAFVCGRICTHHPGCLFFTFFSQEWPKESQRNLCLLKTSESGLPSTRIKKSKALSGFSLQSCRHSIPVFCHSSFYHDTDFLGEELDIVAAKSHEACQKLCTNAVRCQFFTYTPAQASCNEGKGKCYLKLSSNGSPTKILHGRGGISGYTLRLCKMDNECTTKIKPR
T2 sequence (O15393 106-492): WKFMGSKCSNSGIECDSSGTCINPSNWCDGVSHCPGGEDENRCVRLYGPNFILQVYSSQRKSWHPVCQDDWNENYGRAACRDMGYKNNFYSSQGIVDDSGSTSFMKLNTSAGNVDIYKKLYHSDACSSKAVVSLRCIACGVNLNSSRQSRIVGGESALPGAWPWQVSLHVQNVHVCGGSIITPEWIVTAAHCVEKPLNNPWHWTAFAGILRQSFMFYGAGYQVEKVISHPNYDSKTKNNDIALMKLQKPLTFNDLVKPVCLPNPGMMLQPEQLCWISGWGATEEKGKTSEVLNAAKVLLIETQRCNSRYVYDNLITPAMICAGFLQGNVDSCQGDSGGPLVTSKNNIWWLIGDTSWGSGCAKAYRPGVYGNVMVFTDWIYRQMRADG

SMILES | IC50 (FXIa; FXIa) | IC50 (Trypsin) | IC50 [1] | IC50 (Plasma Kallikrein) | IC50 (MMP 14) | IC50 (Kallikrein 13) | IC50 (Urokinase) | IC50 (Tryptase g1) | IC50 (Cathepsin B) | IC50 (FXIa; Factor XIa)
N=C(N)c1cccc(CC(NS(=O)(=O)c2ccccc2)c2nc3ccccc3s2)c1 (racemic) [1 (racemic mixture, batch 1), 3-[2-Benzenesulfonamido-2-(1,3-benzothiazol-2-yl)ethyl]benzene-1-carboximidamide] | > 10 µM | > 10 µM | < 30 µM | > 10 µM | > 10 µM | > 10 µM | > 10 µM | > 10 µM | > 10 µM | –
N=C(N)c1cccc(CC(NS(=O)(=O)c2cccc(-c3ccc(Cl)cc3Cl)c2)c2nc3ccccc3s2)c1 (racemic) [3 (racemic), 3-[2-(1,3-Benzothiazol-2-yl)-2-{2′,4′-dichloro-[1,1′-biphenyl]-3-sulfonamido}ethyl]benzene-1-carboximidamide] | > 10 µM | < 10 µM | > 30 µM | > 10 µM | < 10 µM | > 10 µM | > 10 µM | < 10 µM | > 10 µM | –
N=C(N)c1cccc(C[C@H](NS(=O)(=O)c2ccccc2)c2nnco2)c1 (single isomer, unassigned) [Compound 2 (enantiomer 1, batch 1), 3-[2-Benzenesulfonamido-2-(1,3,4-oxadiazol-2-yl)ethyl]benzene-1-carboximidamide] | > 10 µM | > 10 µM | > 30 µM | > 10 µM | > 10 µM | > 10 µM | > 10 µM | > 10 µM | > 10 µM | –
COc1ccc2nc(C(Cc3cccc(C(=N)N)c3)NS(=O)(=O)c3ccccc3)sc2c1 (centres unmarked) [Compound 11, 3-[2-Benzenesulfonamido-2-(6-methoxy-1,3-benzothiazol-2-yl)ethyl]benzene-1-carboximidamide] | – | > 10 µM | – | > 10 µM | > 10 µM | > 10 µM | < 10 µM | > 10 µM | > 10 µM | > 10 µM
